Laboratory results: US5173297A, “Bacteriocin from Lactococcus lactis subspecies lactis” (Quest International Flavors & Food Ingredients Company …, priority 1991, dated 1992)

Experiments:
Assay in all cases: Spectrum of antimicrobial activity
Parameters in all cases: key: + = inhibition; - = no inhibition
Conditions in all cases: pure, titer 3200 AU/ml
[1] = system: L. casei 842; type: cell-based, Lactobacillus casei
[2] = system: L. monocytogenes 38; type: cell-based, Listeria monocytogenes
[3] = system: L. fermentum 701; type: cell-based, Lactobacillus fermentum
[4] = system: B. subtilis amylase^+; type: cell-based, Bacillus subtilis
[5] = system: P. acidilactici C; type: cell-based, Pediococcus acidilactici
[6] = system: L. monocytogenes 69; type: cell-based, Listeria monocytogenes
[7] = system: L. plantarum 346; type: cell-based, Lactobacillus plantarum
[8] = system: L. brevis 329; type: cell-based, Lactobacillus brevis
[9] = system: L. monocytogenes 36; type: cell-based, Listeria monocytogenes
[10] = system: P. pentosaceus FBB63C; type: cell-based, Pediococcus pentosaceus
Procedure: Colonies appearing on the agar plates were screened for antibacterial activity against a selected indicator, which usually predicted a wide antibacterial spectrum. The indicator chosen was Pediococcus pentosaceus FBB63C (Gonzalez, C. F., and B. S. Kunka, Appl. Environ. Microbiol. 53:2534-2538 (1987) and U.S. Pat. No. 4,883,673 to Gonzalez. Antibacterial activity was determined by picking colonies to replicate agar plates containing 1.9% sodium beta-glycerophosphate as buffer and after appearance of colonies overlaying with indicator.
To ascertain if the antibacterial substance is secreted into liquid medium, the cultures were grown in MRS broth and cell free filtrates of turbid cultures were made and the filtrate posted on a seeded semisolid agar overlay of the indicator. Antibacterial activity was quantitated by assigning arbitrary units. One arbitrary unit (AU) was defined as 5 μl of the culture supernatant yielding a definite, clear zone of inhibition on the indicator lawn. The titer was expressed as the reciprocal of the highest dilution of supernatant showing inhibition.

[11] = system: L. lactis LLA 2.0; type: cell-based, Lactococcus lactis
[12] = system: S. mutans V262; type: cell-based, Streptococcus mutans
[13] = system: L. monocytogenes 04; type: cell-based, Listeria monocytogenes
[14] = system: L. fermentum 342; type: cell-based, Lactobacillus fermentum
[15] = system: L. lactis LLA 1.0; type: cell-based, Lactococcus lactis
[16] = system: L. monocytogenes 62; type: cell-based, Listeria monocytogenes
[17] = system: L. plantarum 355; type: cell-based, Lactobacillus plantarum
[18] = system: L. casei 326; type: cell-based, Lactobacillus casei
[19] = system: P. acidilactici D; type: cell-based, Pediococcus acidilactici
[20] = system: P. acidilactici PAC 1.0; type: cell-based, Pediococcus acidilactici
[21] = system: L. monocytogenes 08; type: cell-based, Listeria monocytogenes
[22] = system: L. monocytogenes 59; type: cell-based, Listeria monocytogenes
[23] = system: P. acidilactici A; type: cell-based, Pediococcus acidilactici
[24] = system: B. subtilis RM125; type: cell-based, Bacillus subtilis
[25] = system: S. mutans GS5; type: cell-based, Streptococcus mutans
[26] = system: L. brevis 888; type: cell-based, Lactobacillus brevis
[27] = system: P. acidilactici B; type: cell-based, Pediococcus acidilactici

nisin [Nisin Pure]
+: inhibition of indicator strain L. casei 842 [1] | inhibition of indicator strain L. monocytogenes 38 [2] | inhibition of indicator strain L. fermentum 701 [3] | inhibition of indicator strain B. subtilis amylase^+ [4] | inhibition of indicator strain P. acidilactici C [5] | inhibition of indicator strain L. monocytogenes 69 [6] | inhibition of indicator strain L. plantarum 346 [7] | inhibition of indicator strain L. brevis 329 [8] | inhibition of indicator strain L. monocytogenes 36 [9] | inhibition of indicator strain P. pentosaceus FBB63C [10] | inhibition of indicator strain L. lactis LLA 2.0 [11] | inhibition of indicator strain L. monocytogenes 04 [13] | inhibition of indicator strain L. fermentum 342 [14] | inhibition of indicator strain L. lactis LLA 1.0 [15] | inhibition of indicator strain L. monocytogenes 62 [16] | inhibition of indicator strain L. plantarum 355 [17] | inhibition of indicator strain L. casei 326 [18] | inhibition of indicator strain P. acidilactici D [19] | inhibition of indicator strain P. acidilactici PAC 1.0 [20] | inhibition of indicator strain L. monocytogenes 08 [21] | inhibition of indicator strain L. monocytogenes 59 [22] | inhibition of indicator strain P. acidilactici A [23] | inhibition of indicator strain B. subtilis RM125 [24] | inhibition of indicator strain S. mutans GS5 [25] | inhibition of indicator strain L. brevis 888 [26] | inhibition of indicator strain P. acidilactici B [27]
-: inhibition of indicator strain S. mutans V262 [12]
